Measurements as given in PMC8619046, “ABCB1 and ABCG2 Control Brain Accumulation and Intestinal Disposition of the Novel ROS1/TRK/ALK Inhibitor Repotrectinib, While OATP1A/1B, ABCG2, and CYP3A Limit Its Oral Availability” (Pharmaceutics, 2021).
Values joined by “and” are separate entries in the source; they are usually repeats but may differ in a detail not shown here. Equal entries are not always repeated. Where two headings read alike, the source gives them in different places.

What was measured:
[1] = 2-h oral plasma pharmacokinetics and tissue distribution, male wild-type and Oatp1a/1b−/− mice; type: in vivo; conditions: 10 mg/kg oral; for concentration at 2 h / Cmax / AUC(0-t) / Tmax / Kp at 2 h: mouse; for Cmax / AUC(0-t) / Tmax: plasma; for AUC(0-t): read-out: AUC0–2h; for Tmax: median (range); for Fold change (SIWC % of dose) / Fold change ratio (SIWC (%)-to-AUC0–2h) / Fold change ratio (SIWC (%)-to-plasma) / Fold change ratio (liver-to-plasma) / Fold increase CSIWC / Fold increase Cliver / Fold increase AUC0–2h: vs wild-type; for Kp at 2 h: male, po, read-out: Liver-to-plasma ratio
Description: (§1) Mice with similar average ages (and body weights) were randomly allocated in experimental groups as far as possible. Mice were maintained in a temperature-controlled and specific pathogen-free environment with a 12-h light and 12-h dark cycle and they received a standard diet (Transbreed, SDS Diets, Technilab-BMI, Someren, The Netherlands) and acidified water ad libitum. […] Given the objective main readout (repotrectinib plasma and tissue concentrations as measured by LC-MS/MS), no blinding method was applied.
(§2) Repotrectinib was dissolved in dimethyl sulfoxide (DMSO) at a concentration of 50 mg/mL. This stock solution was first diluted 3-fold with ethanol/polysorbate 80 (1/1; v/v), followed by further dilution with a 10 mM hydrochloric acid solution, yielding a dosing solution of 1 mg/mL, freshly prepared on the day of experiment. Final concentrations of the solvents in the administration solution were: 2%, 2%, 2%, and 94% (all v/v) for DMSO, ethanol, polysorbate 80, and 10 mM hydrochloric acid solution, respectively.
(§3) To minimize variation in absorption upon oral administration, mice were fasted for 2–3 h before repotrectinib (10 mg/kg body weight) was administered by gavage into the stomach at 10 µL/g body weight, with a blunt-ended needle. Tail vein serial blood samples were collected at 0.125, 0.25, 0.5, 1, 2 and 4 h using heparinized capillary tubes (Sarstedt, Nümbrecht, Germany) for the 8-h experiments. For the 4- and 2-h experiments, blood samplings were performed from the tail vein with the same schedule, but terminated at 2 and 1 h, respectively. Eight, four, or two hours after oral administration, mice were deeply anesthetized with 2–3% isoflurane, followed by cardiac puncture to collect blood in Eppendorf tubes containing heparin as an anticoagulant. Brain, liver, spleen, kidney, lung, small intestine, and testis were rapidly collected after sacrificing the mice by cervical dislocation. The small intestinal contents (SIC) were separated from small intestinal tissue (SI), which was flushed and rinsed with cold saline to remove any residual feces. Brain, liver, spleen, kidney, lung, SI, SIC, and testis were homogenized with 1, 3, 1, 2, 1, 3, 2, and 1 mL of 2% BSA (w/v), respectively. Plasma fraction was isolated from blood by centrifugation at 9000× g for 6 min at 4 °C. All samples were stored at −30 °C until analysis.
(§4) A sensitive and specific liquid chromatography-tandem mass spectrometry method using protein precipitation pre-treatment was adopted to quantify the concentration of repotrectinib in DMEM medium, plasma samples and tissue homogenates.
(§5) A non-compartmental model using the PKSolver add-in program for Microsoft Excel was adopted to calculate the pharmacokinetic parameters of repotrectinib. Oral availability was assessed by the plasma area under the curve (AUC), calculated using repotrectinib plasma concentration-time curves with the linear trapezoidal rule without extrapolating the infinity. Statistical testing was performed in Graphpad Prism7 (Graphpad Software, La Jolla, CA, USA). All data are presented as geometric means ± SD. Heteroscedastic data were log-transformed before applying statistical analysis. When differences between two groups were compared, the two-sided unpaired Student’s t test was used. One-way analysis of variance (ANOVA) was applied when multiple groups were compared, and the Bonferroni post hoc correction was used to accommodate multiple testing. Differences were considered statistically significant when P < 0.05.

[2] = 4-h oral plasma pharmacokinetics and tissue distribution, male wild-type and Oatp1a/1b−/− mice; type: in vivo; conditions: 10 mg/kg oral; for Tmax: Table S2, median (range); for Fold change Cliver / Fold change SIC (% of dose) / Fold change ratio (SIC (%)-to-plasma) / Fold change ratio (brain-to-plasma) / Fold change ratio (liver-to-plasma) / Fold change ratio (testis-to-plasma) / Fold increase Cbrain / Fold increase Ctestis / Fold increase AUC0-4h: vs wild-type; for Kp at 4 h / concentration at 4 h / Cmax / AUC(0-t): male, po; for AUC(0-t): read-out: AUC0-4h
Description: as §1, §2, §3, §4, §5

[3] = Oatp1a/1b−/− (>99% FVB background), male Oatp1a/1b−/− mice
[4] = male Oatp1a/1b−/− mice vs wild-type
[5] = wild-type (>99% FVB background), male wild-type mice
[6] = Table S2, male Oatp1a/1b−/− mice
[7] = FVB, mouse, plasma, 10 mg/kg, Table S2, male Oatp1a/1b−/− mice
[8] = FVB, mouse, plasma, 10 mg/kg, Table S2, male wild-type mice

C[C@H]1CNC(=O)c2cnn3ccc(nc23)N[C@H](C)c2cc(F)ccc2O1 [repotrectinib]
concentration at 2 h ([1]; FVB, small intestine with content, male wild-type mice, read-out: CSIWC): 84700 ± 24100 ng/g
concentration at 2 h ([1]; Oatp1a/1b−/− (>99% FVB background), liver, male Oatp1a/1b−/− mice, read-out: Cliver): 15300 ± 1600 ng/g
Cmax [1, 3]: 5380 ± 520 ng/mL
AUC(0-t) [1, 3]: 8960 ± 770 ng·h/mL
Tmax [1, 3]: 30 min
concentration at 2 h ([1]; Oatp1a/1b−/− (>99% FVB background), small intestine with content, male Oatp1a/1b−/− mice, read-out: CSIWC): 121000 ± 29200 ng/g
liver-to-plasma ratio, fold reduction [1, 4]: 2.3 fold
relative intestinal (SIWC) recovery corrected for plasma concentration, fold decrease [1, 4]: 2.8 fold
relative intestinal (SIWC) recovery corrected for plasma exposure (AUC0–2h), fold decrease [1, 4]: 1.9 fold
SIWC (% of dose) ([1]; male Oatp1a/1b−/− mice): 21.3 ± 3.7 % of dose
SIWC (%)-to-AUC0–2h ratio ([1]; male Oatp1a/1b−/− mice): 2.40 ± 0.54 *** ·10^−3
SIWC (%)-to-plasma ratio ([1]; male Oatp1a/1b−/− mice): 5.58 ± 1.09 *** ·10^−3
Fold change (SIWC % of dose) ([1]; male Oatp1a/1b−/− mice): 1.22
Fold change ratio (SIWC (%)-to-AUC0–2h) ([1]; male Oatp1a/1b−/− mice): 0.52
Fold change ratio (SIWC (%)-to-plasma) ([1]; male Oatp1a/1b−/− mice): 0.35
Fold change ratio (liver-to-plasma) ([1]; male Oatp1a/1b−/− mice): 0.44
Fold increase CSIWC ([1]; male Oatp1a/1b−/− mice): 1.43
Fold increase Cliver ([1]; male Oatp1a/1b−/− mice): 1.55
Fold increase AUC0–2h ([1]; male Oatp1a/1b−/− mice, 10 mg/kg): 2.3 and 2.29
SIWC (% of dose) ([1]; male wild-type mice): 17.4 ± 5.6 % of dose
SIWC (%)-to-AUC0–2h ratio ([1]; male wild-type mice): 4.59 ± 1.04 ·10^−3
SIWC (%)-to-plasma ratio ([1]; male wild-type mice): 15.8 ± 3.9 ·10^−3
Fold change (SIWC % of dose) ([1]; male wild-type mice): 1.00
Fold change ratio (SIWC (%)-to-AUC0–2h) ([1]; male wild-type mice): 1.00
Fold change ratio (SIWC (%)-to-plasma) ([1]; male wild-type mice): 1.00
Fold change ratio (liver-to-plasma) ([1]; male wild-type mice): 1.00
Fold increase AUC0–2h ([1]; male wild-type mice): 1.00
Fold increase CSIWC ([1]; male wild-type mice): 1.00
Fold increase Cliver ([1]; male wild-type mice): 1.00
Kp at 2 h ([1]; FVB, liver, 10 mg/kg, male Oatp1a/1b−/− mice): 4 ± 0.54
Kp at 2 h ([1]; FVB, liver, 10 mg/kg, male wild-type mice): 9.16 ± 1.53
concentration at 2 h ([1]; wild-type (>99% FVB background), liver, male wild-type mice, read-out: Cliver): 9840 ± 1160 ng/g
Cmax [1, 5]: 2640 ± 990 ng/mL
AUC(0-t) [1, 5]: 3920 ± 1290 ng·h/mL
Tmax [1, 5]: 30 min
Tmax ([2]; FVB, mouse, plasma, male wild-type mice, read-out: Tmax): 30 min
SIC (% of dose) [2, 6]: 8.52 ± 3.80 % of dose
SIC (%)-to-plasma ratio [2, 6]: 5.81 ± 2.09 *10-3
Fold change Cliver [2, 6]: 0.94
Fold change SIC (% of dose) [2, 6]: 1.53
Fold change ratio (SIC (%)-to-plasma) [2, 6]: 0.66
Fold change ratio (brain-to-plasma) [2, 6]: 1.20
Fold change ratio (liver-to-plasma) [2, 6]: 0.41
Fold change ratio (testis-to-plasma) [2, 6]: 0.79
Fold increase Cbrain [2, 6]: 2.71
Fold increase Ctestis [2, 6]: 1.70
Fold increase AUC0-4h ([2]; Table S2, male Oatp1a/1b−/− mice, 10 mg/kg): 2.02 and 2
SIC (% of dose) ([2]; Table S2, male wild-type mice): 5.56 ± 1.34 % of dose
SIC (%)-to-plasma ratio ([2]; Table S2, male wild-type mice): 8.79 ± 2.41 *10-3
Fold change Cliver ([2]; Table S2, male wild-type mice): 1.00
Fold change SIC (% of dose) ([2]; Table S2, male wild-type mice): 1.00
Fold change ratio (SIC (%)-to-plasma) ([2]; Table S2, male wild-type mice): 1.00
Fold change ratio (brain-to-plasma) ([2]; Table S2, male wild-type mice): 1.00
Fold change ratio (liver-to-plasma) ([2]; Table S2, male wild-type mice): 1.00
Fold change ratio (testis-to-plasma) ([2]; Table S2, male wild-type mice): 1.00
Fold increase AUC0-4h ([2]; Table S2, male wild-type mice): 1.00
Fold increase Cbrain ([2]; Table S2, male wild-type mice): 1.00
Fold increase Ctestis ([2]; Table S2, male wild-type mice): 1.00
Tmax ([2]; male Oatp1a/1b−/− mice): 0.5 (0.25-1) h
liver-to-plasma ratio, fold decrease [2, 4]: 2.5 fold
Kp at 4 h ([2]; FVB, mouse, brain, 10 mg/kg, Table S2, male Oatp1a/1b−/− mice, read-out: Brain-to-plasma ratio): 0.18 ± 0.04
concentration at 4 h ([2]; FVB, mouse, brain, 10 mg/kg, Table S2, male Oatp1a/1b−/− mice, read-out: Cbrain): 258 ± 31 ng/g
Kp at 4 h ([2]; FVB, mouse, brain, 10 mg/kg, Table S2, male wild-type mice, read-out: Brain-to-plasma ratio): 0.15 ± 0.03
concentration at 4 h ([2]; FVB, mouse, brain, 10 mg/kg, Table S2, male wild-type mice, read-out: Cbrain): 95.1 ± 23.5 ng/g
concentration at 4 h ([2]; FVB, mouse, liver, 10 mg/kg, Table S2, male Oatp1a/1b−/− mice, read-out: Cliver): 6240 ± 1400 ng/g
Kp at 4 h ([2]; FVB, mouse, liver, 10 mg/kg, Table S2, male Oatp1a/1b−/− mice, read-out: Liver-to-plasma ratio): 4.3 ± 0.5
concentration at 4 h ([2]; FVB, mouse, liver, 10 mg/kg, Table S2, male wild-type mice, read-out: Cliver): 6630 ± 1160 ng/g
Kp at 4 h ([2]; FVB, mouse, liver, 10 mg/kg, Table S2, male wild-type mice, read-out: Liver-to-plasma ratio): 10.5 ± 1.9
Cmax [2, 7]: 5070 ± 590 ng/mL
AUC(0-t) [2, 7]: 14100 ± 1530 ng·h/mL
Cmax [2, 8]: 3080 ± 1440 ng/mL
AUC(0-t) [2, 8]: 6990 ± 2460 ng·h/mL
concentration at 4 h ([2]; FVB, mouse, testis, 10 mg/kg, Table S2, male Oatp1a/1b−/− mice, read-out: Ctestis): 264 ± 37 ng/g
Kp at 4 h ([2]; FVB, mouse, testis, 10 mg/kg, Table S2, male Oatp1a/1b−/− mice, read-out: Testis-to-plasma ratio): 0.19 ± 0.05
concentration at 4 h ([2]; FVB, mouse, testis, 10 mg/kg, Table S2, male wild-type mice, read-out: Ctestis): 155 ± 55 ng/g
Kp at 4 h ([2]; FVB, mouse, testis, 10 mg/kg, Table S2, male wild-type mice, read-out: Testis-to-plasma ratio): 0.24 ± 0.07
